Patent US20240376097A1, “BCL-2 Inhibitor” (BeiGene Ltd., priority 2020, published 2024)
Like-named read-outs stand apart in the source and are kept apart here.

Assays:
[1] = test system: BCL-2 G101V knock-in cell line H96 (derive from RS4;11); experiment: Bcl 2-G101V Knock-In RS4;11 Cell Proliferation Assay; type: cell-based; conditions: Homo sapiens, RS4;11 Bcl-2 G101V knock-in clone H96, 48 hrs, CellTiter-GLO, read-out: Cellular proliferation assay (IC50, nM) RS4
Summary of the method: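 H96, a CRISPR-generated RS4;11 clone carrying BCL2-G101V knock-in (WES/RNA-seq validated), seeded 50,000 per well and exposed 48 h at 37 °C to 10-point dilutions topping at 1 or 10 μM. Viability by CellTiter-Glo luminescence; mean IC50.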

[2] = test system: RS4;11 (BCL-2 dependent acute lymphoblastic leukemia cell line); experiment: RS4;11 Cell Proliferation Assay; type: cell-based; conditions: Homo sapiens, RS4-11, RS4;11 cells, read-out: Cellular proliferation assay (IC50, nM) RS4
Summary of the method: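 RS4;11 cells, 50,000 per well in RPMI-1640 with 10% FBS, treated 48 h at 37 °C with a 10-point dilution series topping at 1 μM. Viability read by CellTiter-Glo ATP luminescence; mean IC50 reported.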

[3] = biological target: Recombinant human Bcl-2 protein (Homo sapiens (Human), UniProt P10415); experiment: Bcl-2 TR-FRET Assay; type: binding
Summary of the method: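 0.05 nM Bcl-2 pre-incubated 0.5 h at room temperature with 10-point compound dilutions (top final 1, 0.1, 0.02 or 0.01 uM) in 20 mM potassium phosphate pH 7.5, 50 mM NaCl, 1 mM EDTA, 0.05% Tween-20, 0.01% BSA; FITC-Bak peptide (0.5 nM) and anti-6His Tb cryptate added, 1 h. IC50 from four-parameter logistic fit.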

[4] = biological target: recombinant human Bcl-2-G101V protein (Homo sapiens (Human), UniProt P10415, G101V); experiment: Bcl-2-G101V TR-FRET Assay; type: binding; conditions: Bcl-2 G101V mutant, TR-FRET; read-out: Biochemical assay (IC50, nM) Bcl-2 G101V
Summary of the method: (§1)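 TR-FRET read at excitation 337 nm with emission at 490 nm and 520 nm. Inhibition of Bcl-2-G101V binding to its ligand across increasing compound concentrations was calculated from the 490/520 nm fluorescence ratio, and IC50 values came from four-parameter logistic fits.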

[5] = test system: recombinant human Bcl-2-G101V protein; experiment: Bcl-2-G101V TR-FRET Assay; type: binding; conditions: ratio of biochemical IC50 Bcl-2 G101V / Bcl-2 WT
Summary of the method: as §1

[6] = biological target: recombinant human Bcl-2 D103Y protein (Homo sapiens (Human), UniProt P10415, D103Y); experiment: Bcl-2-D103Y Biochemical Assay (TR-FRET); type: binding; conditions: for IC50: TR-FRET, FITC labeled Bak peptide; for Ratio of Bcl-2 D103Y/Bcl-2 WT: ratio of IC50
Summary of the method: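 Recombinant human Bcl-2 D103Y binding to its ligand measured by TR-FRET (ex 337 nm, em 490/520 nm) with increasing compound concentrations. Percent inhibition from the 490/520 nm ratio; IC50 from four-parameter logistic fit.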

[7] = Bcl-2 wild type, TR-FRET, read-out: Biochemical assay (IC50, nM) Bcl-2 WT
[8] = wild type Bcl-2, unit inferred, read-out: Bcl-2 WT

With `COc1cc(CN2CCN(C3CC4(C3)CN(c3ccc(C(=O)NS(=O)(=O)c5ccc(NC[C@H]6CC[C@](C)(O)CC6)c([N+](=O)[O-])c5)c(Oc5cnc6[nH]cc(F)c6c5)c3)C4)[C@H](c3ccccc3C(C)C)C2)ccc1N1CC(OC)C1` [Example 359, 2-((3-fluoro-1H-pyrrolo[2,3-b]pyridin-5-yl)oxy)-N-((4-((((1r,4r)-4-hydroxy-4-methylcyclohexyl)methyl)amino)-3-nitrophenyl)sulfonyl)-4-(6-((R)-2-(2-isopropylphenyl)-4-(3-methoxy-4-(3-methoxyazetidin-1-yl)benzyl)piperazin-1-yl)-2-azaspiro[3.3]heptan-2-yl)benzamide] the IC50 [1] was 0.63 nM, the IC50 [2] was 0.16 nM and the IC50 [3, 7] was 0.19 nM. The IC50 [3, 8] was 0.19 nM, the IC50 [4] was 0.64 nM and the “Ratio of Bcl-2 G101V/WT” value [5] was 3.4. The IC50 [6] was 0.44 nM and the “Ratio of Bcl-2 D103Y/Bcl-2 WT” value [6] was 2.4.

`COc1cc(CN2CCN(C3CC4(C3)CN(c3ccc(C(=O)NS(=O)(=O)c5ccc(NC[C@H]6CC[C@](C)(O)CC6)c([N+](=O)[O-])c5)c(Oc5cnc6[nH]cc(F)c6c5)c3)C4)[C@H](c3ccccc3C(C)C)C2)ccc1NC(C)C` [Example 360] showed an IC50 [1] of 0.11 nM, an IC50 [2] of 0.05 nM and an IC50 [3, 7] of 0.23 nM. The IC50 [3, 8] was 0.23 nM, the IC50 [4] was 0.5 nM and the “Ratio of Bcl-2 G101V/WT” value [5] was 2.2. For the same molecule, the IC50 [6] was 0.31 nM and the “Ratio of Bcl-2 D103Y/Bcl-2 WT” value [6] was 1.4.

With `CC(C)c1ccccc1[C@@H]1CN(Cc2ccc(C3COC3)cc2)CCN1C1CC2(C1)CN(c1ccc(C(=O)NS(=O)(=O)c3ccc(NC[C@H]4CC[C@](C)(O)CC4)c([N+](=O)[O-])c3)c(Oc3cnc4[nH]cc(F)c4c3)c1)C2` [Example 362, 2-((3-fluoro-1H-pyrrolo[2,3-b]pyridin-5-yl)oxy)-N-((4-((((1r,4r)-4-hydroxy-4-methylcyclohexyl)methyl)amino)-3-nitrophenyl)sulfonyl)-4-(6-((R)-2-(2-isopropylphenyl)-4-(4-(oxetan-3-yl)benzyl)piperazin-1-yl)-2-azaspiro[3.3]heptan-2-yl) benzamide] the IC50 [1] was 0.17 nM, the IC50 [2] was 0.08 nM and the IC50 [3, 7] was 0.07 nM. The IC50 [3, 8] was 0.069 nM, the IC50 [4] was 0.14 nM and the “Ratio of Bcl-2 G101V/WT” value [5] was 2. The IC50 [6] was 0.095 nM and the “Ratio of Bcl-2 D103Y/Bcl-2 WT” value [6] was 1.4.

`COc1ccc(CN2CCN(C3CC4(C3)CN(c3ccc(C(=O)NS(=O)(=O)c5ccc(NC[C@H]6CC[C@](C)(O)CC6)c([N+](=O)[O-])c5)c(Oc5cnc6[nH]cc(F)c6c5)c3)C4)[C@H](c3ccccc3C(C)C)C2)cc1OC1CC1` [Example 364, 4-(6-((R)-4-(3-cyclopropoxy-4-methoxybenzyl)-2-(2-isopropylphenyl)piperazin-1-yl)-2-azaspiro[3.3]heptan-2-yl)-2-((3-fluoro-1H-pyrrolo[2,3-b]pyridin-5-yl)oxy)-N-((4-((((1r,4r)-4-hydroxy-4-methylcyclohexyl)methyl)amino)-3-nitrophenyl)sulfonyl) benzamide] showed an IC50 [1] of 0.2 nM, an IC50 [2] of 0.13 nM and an IC50 [3, 7] of 0.14 nM. For the same molecule, the IC50 [4] was 0.39 nM, the “Ratio of Bcl-2 G101V/WT” value [5] was 2.9 and the IC50 [6] was 0.14 nM. The “Ratio of Bcl-2 D103Y/Bcl-2 WT” value [6] was 1.0.

`CC(C)c1ccccc1[C@@H]1CN(Cc2ccc(OC3CC3)cc2)CCN1C1CC2(C1)CN(c1ccc(C(=O)NS(=O)(=O)c3ccc(NC[C@H]4CC[C@](C)(O)CC4)c([N+](=O)[O-])c3)c(Oc3cnc4[nH]cc(F)c4c3)c1)C2` [Example 365] showed an IC50 [1] of 0.26 nM, an IC50 [2] of 0.12 nM and an IC50 [3, 7] of 0.46 nM. For the same molecule, the IC50 [4] was 1.3 nM, the “Ratio of Bcl-2 G101V/WT” value [5] was 2.9 and the IC50 [6] was 0.51 nM. For the same molecule, the “Ratio of Bcl-2 D103Y/Bcl-2 WT” value [6] was 1.1.

`COc1cc(CN2CCN(C3CC4(C3)CN(c3ccc(C(=O)NS(=O)(=O)c5ccc(NC[C@H]6CC[C@](C)(O)CC6)c([N+](=O)[O-])c5)c(Oc5cnc6[nH]cc(F)c6c5)c3)C4)[C@H](c3ccccc3C(C)C)C2)ccc1C1CCOCC1` [Example 367] showed an IC50 [1] of 0.3 nM, an IC50 [2] of 0.11 nM and an IC50 [3, 7] of 0.35 nM. The IC50 [4] was 0.9 nM, the “Ratio of Bcl-2 G101V/WT” value [5] was 2.6 and the IC50 [6] was 0.4 nM. The “Ratio of Bcl-2 D103Y/Bcl-2 WT” value [6] was 1.2.
